Test results as given in patent publication EP0934745B1, “Use of androsterone derivatives for inhibiting DNA binding of ap-1 and airway smooth muscle proliferation” (CHARLOTTE-MECKLENBURG HOSPITAL doing business as Carolinas …, priority 1998, dated 1999).

Molecular target: T1, glucose-6-phosphate dehydrogenase (G6PDH) (Rattus norvegicus, UniProt P05370)
T1 construct: endogenous in cells; host or cells: primary rat tracheal (airway) smooth muscle cells
Assay: G6PDH activity in airway smooth muscle cell lysates, inhibitors added to the lysate
Format: biochemical
Details: 100 µl, read-out: PERCENT INHIBITION OF GLUCOSE 6-PHOSPHATE DEHYDROGENASE ACTIVITY
Procedure: After 1 hour cells were lysed and G6PDH activity was assayed as described below. In other experiments, G6PDH activity was measured in cell lysates prepared from untreated confluent cultures and treated in vitro with DHEA or 16α-BrEA added to the reaction mixture in 5 µl DMSO. […] Ribonucleosides or deoxyribonucleosides were dissolved in 0.5 ml of 1 N HCl and added to DMEM. The pH of the medium was adjusted to 7.1 by titration with 1 N NaOH, and medium was then sterilized by passage through a […] filter. Growth was measured by MTT reduction after 24, 48 and 96 hours.
To determine if DHEA or its analogs induced programmed cell death, confluent cultures in 6 well plastic plates were treated with 50 or 250 µM DHEA, 10 or 50 µM 16α-BrEA, or vehicle (25 µl DMSO). After 2 hours cells were washed twice with DPBS and scraped on ice into 1.5 ml microfuge tubes and centrifuged 250 g for 5 minutes at 4°C. The cell pellet was gently resuspended in 30 µl DPBS and lysed by addition of 30 µl lysis buffer (80 mM EDTA, 1.6% [wt/vol] sodium lauryl sarcosinate and 5 mg/ml proteinase K in 200 mM Tris-HCl buffer, pH 8.0). Lysate was incubated at 50°C for 1.5 hours. RNAse A (0.2 mg/ml) was added and the lysate was incubated for another 30 minutes at 37°C. DNA bands were separated along with a DNA ladder standard on a 1% agarose gel at 60 V for 1 hour, intercalated with ethidium bromide, and visualized and photographed under ultraviolet light. Measurement of Glucose-6-Phosphate Dehydrogenase Activity. Cultures were washed three times with cold DPBS on ice, scraped into ice cold buffer (10 mM MgCl2 in 50 mM Tris, pH 8.0) and sonicated on ice. G6PDH activity was then assayed by the method of Jones and Andrews (Jones, J.T., and Andrews, S.G., "Glucose-6-phosphate dehydrogenase activity in somatic and germinal cells of the mouse testis," J. Reproduc. Fertility, 54, 357-362 (1978)) in a reaction mixture containing 50-200 µl cell lysate, 20 µl of 10 mM β-nicotinamide adenine dinucleotide phosphate (NADP) and 20 µl of 10 mM D-glucose-6-phosphate (G6P) in a total volume of 1 ml buffer (10 mM MgCl2 in 50 mM Tris, pH 8.0). The reaction was initiated by addition of G6P. The linear increase in absorbance at 340 nm was monitored at 25°C for 300 seconds. Activity was expressed as units/mg protein, where 1.0 unit will oxidase 1.0 µmole of G6P to 6-phospho-D-gluconate per min in the presence of NADP. Protein was measured using the BCA protein assay (Rockford, IL). Immunoblot Assay for p21^ras and c-fos Proteins. For measurement of p21^ras, cells were washed twice-with cold DPBS and swelled on ice for 15 minutes with 500 µl cold lysis buffer (10 mM HEPES, 1 mM MgCl2, 1 mM EDTA, 1 µM pepstatin, 2 µg/ml aprotinin, and 1 mM phenylmethylsulfonyl fluoride). See Schulz and Nyce (1991), supra. Cells were then scraped into 1.5 ml polypropylene tubes, homogenized and clarified by centrifugation at 3,000 g for 1 minute at 4°C. The postnuclear supernatant was centrifuged 100,000 g for 30 minutes at 4°C. Supernatants were collected and pelleted membranes were resuspended in detergent buffer (1% Triton X-100, 1% sodium deoxycholate, 0.1% SDS, 150 mM NaCl, 1 µM pepstatin, 2 µg/ml aprotinin and 1 mM phenylmethylsulfonyl fluoride in 25 mM Tris, pH 7.4). Aliquots of supernatant and membrane fractions were removed for protein determination using the BCA protein assay. […]
Activity is expressed as % inhibition of DMSO vehicle-treated controls by 16α-bromoepiandrosterone (BrEA) or dehydroepiandrosterone (DHEA). […]

T1 sequence (P05370 whole entry): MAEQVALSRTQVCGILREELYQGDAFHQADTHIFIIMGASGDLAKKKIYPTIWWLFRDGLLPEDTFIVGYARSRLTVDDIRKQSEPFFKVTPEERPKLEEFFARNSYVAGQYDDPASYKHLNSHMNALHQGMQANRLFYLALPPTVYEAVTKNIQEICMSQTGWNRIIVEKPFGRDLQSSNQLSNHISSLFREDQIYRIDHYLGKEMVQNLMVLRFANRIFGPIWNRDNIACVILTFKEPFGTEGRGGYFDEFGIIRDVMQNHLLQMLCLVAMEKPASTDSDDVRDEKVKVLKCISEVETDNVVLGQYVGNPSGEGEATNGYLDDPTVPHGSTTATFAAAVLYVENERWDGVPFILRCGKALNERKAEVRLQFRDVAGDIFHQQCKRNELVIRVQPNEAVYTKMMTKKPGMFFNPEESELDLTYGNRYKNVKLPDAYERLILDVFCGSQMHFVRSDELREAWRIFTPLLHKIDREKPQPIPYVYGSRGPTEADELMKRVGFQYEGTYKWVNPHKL

Structure (SMILES) | inhibition at 25 µM [%] | inhibition at 50 µM [%] | inhibition at 100 µM (100 µM) [%]
C[C@]12CC[C@H](O)C[C@@H]1CC[C@@H]1[C@@H]2CC[C@]2(C)C(=O)[C@H](Br)C[C@@H]12 [16α-BrEA, 16α-bromoepiandrosterone] | 49 | 71 ± 8 | 
C[C@]12CC[C@H](O)CC1=CC[C@@H]1[C@@H]2CC[C@]2(C)C(=O)CC[C@@H]12 [DHEA, dehydroepiandrosterone] | 77 ± 3 | 82 ± 3 | 93 ± 3
